Structures are written as SMILES.

Broadly, the EC50 is the concentration at which the effect is half-maximal.

The assay has as its target T1, human OX2R (Homo sapiens, UniProt O43614).
T1 construct: expressed in transfected cells; host or cells: Chinese hamster ovary (CHO) cells, kept under G418 selection
T1 sequence (O43614 1-444): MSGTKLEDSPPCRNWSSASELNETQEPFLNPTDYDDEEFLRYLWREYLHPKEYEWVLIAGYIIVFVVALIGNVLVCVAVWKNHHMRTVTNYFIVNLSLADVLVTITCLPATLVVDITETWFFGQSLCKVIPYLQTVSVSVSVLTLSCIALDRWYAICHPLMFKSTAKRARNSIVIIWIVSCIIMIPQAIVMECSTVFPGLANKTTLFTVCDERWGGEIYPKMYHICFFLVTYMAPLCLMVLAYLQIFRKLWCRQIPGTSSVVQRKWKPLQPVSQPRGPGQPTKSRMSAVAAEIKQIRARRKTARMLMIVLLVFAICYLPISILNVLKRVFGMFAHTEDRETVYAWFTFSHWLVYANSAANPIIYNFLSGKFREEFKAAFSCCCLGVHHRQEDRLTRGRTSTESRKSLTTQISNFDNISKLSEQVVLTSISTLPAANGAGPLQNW
The experiment in a line: IPOne (IP-One) orexin receptor agonist assay in CHO cells expressing human OX2R. The format is cell-based. Conditions: for EC50: CHO cells expressing human OX2R, IP-One detection, 2 hours incubation, four parameter logistic fit, read-out: OX2R Potency, EC50; for % max agonist effect (Emax): human OX2R, percentage of sample raw value/mean max effect (reference compound at 1 uM with 100% activity).

As to `CS(=O)(=O)N[C@H]1CCN(c2ncc(F)cc2F)[C@H]1CO[C@H]1CC[C@@H](c2ccccc2)CC1` [Example 63, N-((2R,3S)-1-(3,5-difluoropyridin-2-yl)-2-((((CIS)-4-phenylcyclohexyl)oxy)methyl)pyrrolidin-3-yl)methanesulfonamide], the EC50 was 331 nM and the “% max agonist effect (Emax)” value stood at 101.1%.
Turning to `COc1cncc(N2CC[C@H](NS(C)(=O)=O)[C@@H]2CO[C@H]2CC[C@@H](c3ccccc3)CC2)c1` [Example 64, N-((2R,3S)-1-(5-methoxypyridin-3-yl)-2-((((CIS)-4-phenylcyclohexyl)oxy)methyl)pyrrolidin-3-yl)methanesulfonamide], the concentration for a half-maximal effect (EC50) came out at 46.3 nM and the “% max agonist effect (Emax)” value was found to be 101.1%.
Regarding `Cc1cnc(N2CC[C@H](NS(C)(=O)=O)[C@@H]2CO[C@H]2CC[C@@H](c3ccccc3)CC2)cn1` [Example 65, N-((2R,3S)-1-(5-methylpyrazin-2-yl)-2-((((CIS)-4-phenylcyclohexyl)oxy)methyl)pyrrolidin-3-yl)methanesulfonamide], the EC50 came to 123 nM and the “% max agonist effect (Emax)” value is on record as 100.9%.
Turning to `CS(=O)(=O)N[C@H]1CCN(c2cnc(C3CC3)cn2)[C@H]1CO[C@H]1CC[C@@H](c2ccccc2)CC1` [Example 66, N-((2R,3S)-1-(5-cyclopropylpyrazin-2-yl)-2-((((CIS)-4-phenylcyclohexyl)oxy)methyl)pyrrolidin-3-yl)methanesulfonamide], the EC50 turned out to be 178 nM and the “% max agonist effect (Emax)” value worked out at 99.2%.
For `Cc1ccnc(N2CC[C@H](NS(C)(=O)=O)[C@@H]2CO[C@H]2CC[C@@H](c3ccccc3)CC2)n1` [Example 67, N-((2R,3S)-1-(4-methylpyrimidin-2-yl)-2-((((CIS)-4-phenylcyclohexyl)oxy)methyl)pyrrolidin-3-yl)methanesulfonamide], the EC50 worked out at 2180 nM and the “% max agonist effect (Emax)” value came to 92.6%.
The corresponding values for `CS(=O)(=O)N[C@H]1CCN(c2ccc(O)cn2)[C@H]1CO[C@H]1CC[C@@H](c2ccccc2)CC1` [Example 68, N-((2R,3S)-1-(5-hydroxypyridin-2-yl)-2-((((CIS)-4-phenylcyclohexyl)oxy)methyl)pyrrolidin-3-yl)methanesulfonamide] are 173 nM and 99.1%.
Take `CS(=O)(=O)N[C@H]1CCN(c2csc(C3CC3)n2)[C@H]1CO[C@H]1CC[C@@H](c2ccccc2)CC1` [Example 69, N-((2R,3S)-1-(2-cyclopropylthiazol-4-yl)-2-((((CIS)-4-phenylcyclohexyl)oxy)methyl)pyrrolidin-3-yl)methanesulfonamide]: the EC50 stood at 271 nM and the “% max agonist effect (Emax)” value worked out at 99.4%.
The matching figures for `CS(=O)(=O)N[C@H]1CCN(c2ccncc2C(F)(F)F)[C@H]1CO[C@H]1CC[C@@H](c2ccccc2)CC1` [Example 70, N-((2R,3S)-2-((((CIS)-4-phenylcyclohexyl)oxy)methyl)-1-(3-(trifluoromethyl)pyridin-4-yl)pyrrolidin-3-yl)methanesulfonamide]: 1670 nM and 96.0%.
Consider `CS(=O)(=O)N[C@H]1CCN(c2ccc(CO)nc2)[C@H]1CO[C@H]1CC[C@@H](c2ccccc2)CC1` [Example 71, N-((2R,3S)-1-(6-(hydroxymethyl)pyridin-3-yl)-2-((((CIS)-4-phenylcyclohexyl)oxy)methyl)pyrrolidin-3-yl)methanesulfonamide], for which the EC50 is 23.8 nM and the “% max agonist effect (Emax)” value is listed as 101.1%.
The matching figures for `CS(=O)(=O)N[C@H]1CCN(c2nccc(O)c2F)[C@H]1CO[C@H]1CC[C@@H](c2ccccc2)CC1` [Example 72, N-((2R,3S)-1-(3-fluoro-4-hydroxypyridin-2-yl)-2-((((CIS)-4-phenylcyclohexyl)oxy)methyl)pyrrolidin-3-yl)methanesulfonamide]: 1.2 nM and 99.9%.
The corresponding values for `COc1ccnc(N2CC[C@H](NS(C)(=O)=O)[C@@H]2CO[C@H]2CC[C@@H](c3ccccc3)CC2)c1` [Example 73, N-((2R,3S)-1-(4-methoxypyridin-2-yl)-2-((((CIS)-4-phenylcyclohexyl)oxy)methyl)pyrrolidin-3-yl)methanesulfonamide] are 105 nM and 99.7%.
Take `CN(C)c1ccnc(N2CC[C@H](NS(C)(=O)=O)[C@@H]2CO[C@H]2CC[C@@H](c3ccccc3)CC2)c1` [Example 74, N-((2R,3S)-1-(4-(dimethylamino)pyridin-2-yl)-2-((((CIS)-4-phenylcyclohexyl)oxy)methyl)pyrrolidin-3 - yl)methanesulfonamide]: the EC50 worked out at 662 nM and the “% max agonist effect (Emax)” value is 97.4%.
The corresponding values for `CS(=O)(=O)N[C@H]1CCN(c2cc(O)ccn2)[C@H]1CO[C@H]1CC[C@@H](c2ccccc2)CC1` [Example 75, N-((2R,3S)-1-(4-hydroxypyridin-2-yl)-2-((((CIS)-4-phenylcyclohexyl)oxy)methyl)pyrrolidin-3-yl)methanesulfonamide] are 0.8 nM and 100.4%.
With `C[C@@H]1C[C@H](NS(C)(=O)=O)[C@H](CO[C@H]2CC[C@@H](c3ccccc3)CC2)N1c1nnnn1C` [Example 80, N-((2R,3S,5R)-5-Methyl-1-(1-methyl-1H-tetrazol-5-yl)-2-((((CIS)-4-phenylcyclohexyl)oxy)-methyl)pyrrolidin-3-yl)methanesulfonamide], the EC50 came out at 1.8 nM and the “% max agonist effect (Emax)” value was determined as 97.9%.
As to `Cc1ccncc1N1CC[C@H](NS(C)(=O)=O)[C@@H]1CO[C@H]1CC[C@@H](c2ccccc2)CC1` [Example 81, N-((2R,3S)-1-(4-Methylpyridin-3-yl)-2-((((CIS)-4-phenylcyclohexyl)oxy)methyl)pyrrolidin-3-yl)methanesulfonamide], the EC50 turned out to be 24.5 nM and the “% max agonist effect (Emax)” value is recorded as 100.9%.
On to `Cc1ncccc1N1CC[C@H](NS(C)(=O)=O)[C@@H]1CO[C@H]1CC[C@@H](c2ccccc2)CC1` [Example 82, N-((2R,3S)-1-(2-methylpyridin-3-yl)-2-((((CIS)-4-phenylcyclohexyl)oxy)methyl)pyrrolidin-3-yl)methanesulfonamide], for which the EC50 came to 3360 nM and the “% max agonist effect (Emax)” value stood at 92.4%.
Turning to `Cc1ncsc1N1CC[C@H](NS(C)(=O)=O)[C@@H]1CO[C@H]1CC[C@@H](c2ccccc2)CC1` [Example 83, N-((2R,3S)-1-(4-methylthiazol-5-yl)-2-((((CIS)-4-phenylcyclohexyl)oxy)methyl)pyrrolidin-3-yl)methanesulfonamide], the EC50 amounted to 1070 nM and the “% max agonist effect (Emax)” value turned out to be 94.8%.
`Cc1scnc1N1CC[C@H](NS(C)(=O)=O)[C@@H]1CO[C@H]1CC[C@@H](c2ccccc2)CC1` [Example 84, N-((2R,3S)-1-(5-methylthiazol-4-yl)-2-((((CIS)-4-phenylcyclohexyl)oxy)methyl)pyrrolidin-3-yl)methanesulfonamide]: the 50% effective concentration (EC50) stood at 109 nM and the “% max agonist effect (Emax)” value was 100.7%.
Turning to `COC[C@@H]1C[C@H](NS(C)(=O)=O)[C@H](CO[C@H]2CC[C@@H](c3cccc(F)c3)CC2)N1c1cc(O)c(F)cn1` [Example 85, N-((2R,3S,5S)-1-(5-fluoro-4-hydroxypyridin-2-yl)-2-((((CIS)-4-(3-fluorophenyl)cyclohexyl)-oxy)methyl)-5-(methoxymethyl)pyrrolidin-3-yl)methanesulfonamide], the EC50 is 0.54 nM and the “% max agonist effect (Emax)” value came out at 101.1%.
`Cn1ccc(=O)c(F)c1N1CC[C@H](NS(C)(=O)=O)[C@@H]1CO[C@H]1CC[C@@H](c2ccccc2)CC1` [Example 86, N-((2R,3S)-1-(3-fluoro-1-methyl-4-oxo-1,4-dihydropyridin-2-yl)-2-((((CIS)-4-phenylcyclohexyl)oxy)methyl)pyrrolidin-3-yl)methanesulfonamide]: the EC50 was found to be 148 nM and the “% max agonist effect (Emax)” value came to 99.9%.
For the compound `Cn1ccc(=O)cc1N1CC[C@H](NS(C)(=O)=O)[C@@H]1CO[C@H]1CC[C@@H](c2ccccc2)CC1` [Example 87, N-((2R,3S)-1-(1-methyl-4-oxo-1,4-dihydropyridin-2-yl)-2-((((CIS)-4-phenylcyclohexyl)oxy)methyl)pyrrolidin-3-yl)methanesulfonamide], the EC50 turned out to be 52.4 nM and the “% max agonist effect (Emax)” value amounted to 102.3%.
Turning to `Cn1cc(F)c(=O)cc1N1CC[C@H](NS(C)(=O)=O)[C@@H]1CO[C@H]1CC[C@@H](c2ccccc2)CC1` [Example 88, N-((2R,3S)-1-(5-fluoro-1-methyl-4-oxo-1,4-dihydropyridin-2-yl)-2-((((CIS)-4-phenylcyclohexyl)oxy)methyl)pyrrolidin-3-yl)methanesulfonamide], the EC50 was 29.3 nM and the “% max agonist effect (Emax)” value is reported as 101.1%.
On to `CS(=O)(=O)N[C@H]1CCN(c2cc(=O)c(F)cn2CC(F)F)[C@H]1CO[C@H]1CC[C@@H](c2ccccc2)CC1` [Example 89, N-((2R,3S)-1-(1-(2,2-difluoroethyl)-5-fluoro-4-oxo-1,4-dihydropyridin-2-yl)-2-((((CIS)-4-phenylcyclohexyl)oxy)methyl)pyrrolidin-3-yl)methanesulfonamide], for which the EC50 was determined as 108 nM and the “% max agonist effect (Emax)” value stood at 98.9%.

For the origin of these results see patent publication US12312332B2 (Merck Sharp & Dohme LLC., priority 2019, dated 2025).
